# US11584734B2, “Tricyclic compounds as histone methyltransferase inhibitors” (GLOBAL BLOOD THERAPEUTICS, INC., priority 2017, dated 2023)
# Target: T1, G9a (Homo sapiens, UniProt Q96KQ7)
# T1 sequence (Q96KQ7 1-1210): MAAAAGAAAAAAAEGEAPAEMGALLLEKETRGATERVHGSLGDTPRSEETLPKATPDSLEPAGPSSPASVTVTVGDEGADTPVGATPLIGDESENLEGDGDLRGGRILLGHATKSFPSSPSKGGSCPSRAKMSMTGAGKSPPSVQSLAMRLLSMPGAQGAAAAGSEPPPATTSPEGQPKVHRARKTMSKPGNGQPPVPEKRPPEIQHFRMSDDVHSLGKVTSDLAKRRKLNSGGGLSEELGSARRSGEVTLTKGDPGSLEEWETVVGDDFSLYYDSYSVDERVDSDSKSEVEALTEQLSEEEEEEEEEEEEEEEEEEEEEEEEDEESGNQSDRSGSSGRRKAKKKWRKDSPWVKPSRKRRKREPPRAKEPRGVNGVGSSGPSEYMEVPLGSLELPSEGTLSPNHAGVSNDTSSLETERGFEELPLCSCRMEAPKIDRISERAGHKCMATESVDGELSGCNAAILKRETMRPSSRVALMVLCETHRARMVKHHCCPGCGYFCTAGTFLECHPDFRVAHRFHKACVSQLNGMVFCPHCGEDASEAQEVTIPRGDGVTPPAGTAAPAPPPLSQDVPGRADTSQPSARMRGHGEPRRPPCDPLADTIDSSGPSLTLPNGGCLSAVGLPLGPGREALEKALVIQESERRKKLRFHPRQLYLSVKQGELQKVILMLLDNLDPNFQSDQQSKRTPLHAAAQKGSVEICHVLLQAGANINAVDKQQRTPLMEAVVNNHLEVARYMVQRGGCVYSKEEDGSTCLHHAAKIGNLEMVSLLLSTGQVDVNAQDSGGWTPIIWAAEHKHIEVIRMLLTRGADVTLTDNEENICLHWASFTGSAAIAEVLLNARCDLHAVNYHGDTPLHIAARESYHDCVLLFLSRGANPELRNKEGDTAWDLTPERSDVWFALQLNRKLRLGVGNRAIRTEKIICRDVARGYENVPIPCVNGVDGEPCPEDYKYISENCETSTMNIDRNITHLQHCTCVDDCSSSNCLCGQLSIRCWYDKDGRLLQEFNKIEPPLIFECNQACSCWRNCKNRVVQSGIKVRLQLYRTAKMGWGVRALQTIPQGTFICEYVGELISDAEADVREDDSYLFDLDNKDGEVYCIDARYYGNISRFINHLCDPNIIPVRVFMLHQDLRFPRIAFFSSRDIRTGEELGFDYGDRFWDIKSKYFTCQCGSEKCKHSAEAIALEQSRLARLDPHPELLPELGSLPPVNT
# Assay: G9a AlphaLISA enzymatic activity assay
# Format: biochemical
# Details: negative log of IC50 in molar, 0.15 nM G9a, 15 uM S-adenosyl-methionine, 100 nM biotinylated histone 3 peptide (1-21)
# Excerpt: The G9a AlphaLISA assay was used to detect the methyl modifications of a biotinylated histone H3 peptide by the compounds. These modifications are done by the histone methyl transferase activity of the G9a enzyme. The assay consists of reading a chemiluminescent signal at 615 nm; this signal is generated by a laser excitation at 680 nm that transfers a reactive singlet oxygen between the donor beads and acceptor beads. Donor beads are streptavidin conjugated and bind to the biotin on the peptide. Acceptor beads are conjugated with an antibody that recognizes the specific G9a methyl mark on the peptide. If there is a methyl mark on the peptide, the acceptor beads will bind to the peptide. Upon binding, the acceptor beads will be in close proximity (<200 nm) of the donor beads and when the donor beads are excited, the transfer of the oxygen can occur and a strong signal will be generated. If there is no methyl mark, the interaction between beads will not occur and signal will be at background levels.
# For the assay, the following buffer was used to set up reactions: 50 mM Tris-HCl pH9, 50 mM NaCl, 0.01% Tween-20 and 1 mM DTT (added fresh prior to starting the reactions). […] The reaction is incubated at rt for 1 hour and subsequently quenched by the addition of the acceptor beads (anti-H3k9me2 AlphaLISA acceptor beads, PerkinElmer #AL117) at a final concentration of 20 ug/mL. The acceptor beads are incubated for 1 hour. After 1 hour, the donor beads are added at a final concentration of 20 ug/mL (Alpha Streptavidin donor beads, PerkinElmer #6760002). Donor beads are incubated for 0.5 hours. Both donor and acceptor beads are resuspended in AlphaLISA 5X Epigenetics Buffer 1 Kit (PerkinElmer #AL008) prior to addition to the reaction. All manipulations and incubations with the donor and acceptor beads are done in subdued light. Signal is detected in an EnVision plate reader in Alpha mode. See ACS Med Chem Lett. 2014; 5(2):205-9.
# Percent inhibition was calculated for each compound dilution and the concentration that produced 50% inhibition was calculated. This value is presented as the pIC50, which is the negative log of the IC50 value in molar.
row,SMILES,IC50 [nM]
1,"CNc1c2c(nc3cc(OCCCN)c(OC)cc13)CCC2 [Example 61, 6-(3-aminopropoxy)-7-methoxy-N-methyl-1H,2H,3H-cyclopenta[b]quinolin-9-amine]",537
2,"CNc1c2c(nc3cc(OCCCNS(C)(=O)=O)c(OC)cc13)CCC2 [Example 62, N-(3-{[7-methoxy-9-(methylamino)-1H,2H,3H-cyclopenta[b]quinolin-6-yl]oxy}propyl)methanesulfonamide]",933
3,"COc1cc2c(NCC3CC3)c3c(nc2cc1OCCOCCN(C)C)CCC3 [Example 63, N-(cyclopropylmethyl)-6-{2-[2-(dimethylamino)ethoxy]ethoxy}-7-methoxy-1H,2H,3H-cyclopenta[b]quinolin-9-amine]",18.2
4,"CNc1c2c(nc3cc(OCCC(C)N4CCCC4)c(OC)cc13)CCC2 (stereo not shown) [Example 64, 7-methoxy-N-methyl-6-[3-(pyrrolidin-1-yl)butoxy]-1H,2H,3H-cyclopenta[b]quinolin-9-amine]",126
5,"CNc1c2c(nc3cc(OC(C)CCN4CCCC4)c(OC)cc13)CCC2 (stereo not shown) [Example 65, 7-methoxy-N-methyl-6-{[4-(pyrrolidin-1-yl)butan-2-yl]oxy}-1H,2H,3H-cyclopenta[b]quinolin-9-amine]",72.4
6,"CCN(CC)CCOCCOc1cc2nc3c(c(NC(C)C)c2cc1OC)CCC3 [Example 66, 6-{2-[2-(diethylamino)ethoxy]ethoxy}-7-methoxy-N-(propan-2-yl)-1H,2H,3H-cyclopenta[b]quinolin-9-amine]",437
7,"COc1cc2c(NCC3CNC3)c3c(nc2cc1OCCCN1CCCC1)CCC3 [Example 67, N-[(azetidin-3-yl)methyl]-7-methoxy-6-[3-(pyrrolidin-1-yl)propoxy]-1H,2H,3H-cyclopenta[b]quinolin-9-amine]",1.35
8,"COc1cc2c(NCC3CC3)c3c(nc2cc1OCC1(CN2CCCC2)COC1)CCC3 [Example 68, N-(cyclopropylmethyl)-7-methoxy-6-({3-[(pyrrolidin-1-yl)methyl]oxetan-3-yl}methoxy)-1H,2H,3H-cyclopenta[b]quinolin-9-amine]",1550
9,"CNc1c2c(nc3cc(OCCCN4C5CCCC4CC5)c(OC)cc13)CCC2 [Example 69, 6-(3-{8-azabicyclo[3.2.1]octan-8-yl}propoxy)-7-methoxy-N-methyl-1H,2H,3H-cyclopenta[b]quinolin-9-amine]",2690
10,"COc1cc2c(NC3CCN(C(C)C)CC3)c3c(nc2cc1OCCCN(C)C)CCC3 [Example 70, N-{6-[3-(dimethylamino)propoxy]-7-methoxy-1H,2H,3H-cyclopenta[b]quinolin-9-yl}-1-(propan-2-yl)piperidin-4-amine]",4.9

# Continued, values first:
row,IC50 [nM],SMILES
1,40.7,"CNc1c2c(nc3cc(OCCCN(C)C)c(OC)cc13)CCC2 [Example 71, 6-[3-(dimethylamino)propoxy]-7-methoxy-N-methyl-1H,2H,3H-cyclopenta[b]quinolin-9-amine]"
2,1950,"COc1cc2c(NCC3CC3)c3c(nc2cc1OCCCNS(N)(=O)=O)CCC3 [Example 72, N-[3-({9-[(cyclopropylmethyl)amino]-7-methoxy-1H,2H,3H-cyclopenta[b]quinolin-6-yl}oxy)propyl]aminosulfonamide]"
3,1.45,"COc1cc2c(NC3CCCNC3)c3c(nc2cc1OCCCN(C)C)CCC3 (stereo not shown) [Example 73, N-{6-[3-(dimethylamino)propoxy]-7-methoxy-1H,2H,3H-cyclopenta[b]quinolin-9-yl}piperidin-3-amine]"
4,8.32,"COc1cc2c(NCC3CNC3)c3c(nc2cc1OCCCN1CC2CC(C2)C1)CCC3 [Example 74, 6-(3-{3-azabicyclo[3.1.1]heptan-3-yl}propoxy)-N-[(azetidin-3-yl)methyl]-7-methoxy-1H,2H,3H-cyclopenta[b]quinolin-9-amine]"
5,52.5,"CCNc1c2c(nc3cc(OCCCN4CC[C@@H](OC)C4)c(OC)cc13)CCC2 [Example 75, N-ethyl-7-methoxy-6-{3-[(3R)-3-methoxypyrrolidin-1-yl]propoxy}-1H,2H,3H-cyclopenta[b]quinolin-9-amine]"
6,6.46,"COc1cc2c(NC3CCN(C(C)C)CC3)c3c(nc2cc1OCCCN1CC[C@@H](OC)C1)CCC3 [Example 76, N-(7-methoxy-6-{3-[(3R)-3-methoxypyrrolidin-1-yl]propoxy}-1H,2H,3H-cyclopenta[b]quinolin-9-yl)-1-(propan-2-yl)piperidin-4-amine]"
